Test results reported in USRE40086E1, “Method for treating bacterial infection with novel 7-substituted-9-substituted amino 6-demethyl-6-deoxytetracyclines” (Wyeth Holdings Corporation, priority 1991, dated 2008).

How the values were obtained:
E. coli PRP1 TetA = assay: MIC, agar dilution (Table IA); type: cell-based; conditions: unit assumed
[1] = tested on: S. aureus IVES 2943 (meth. resistant); assay: MIC, agar dilution; type: cell-based; conditions: S. aureus IVES 2943; Table IA; unit assumed
E. coli MC4100 TetB = assay: MIC, agar dilution (Table IA); type: cell-based; conditions: unit assumed
S. aureus SMITH (sens) [2] = assay: In vivo antibacterial evaluation, acute lethal infection in mice; conditions: Oral
Excerpt: In Vivo Antibacterial Evaluation (Table VII)

E. coli UBMS 90-5 = assay: MIC, agar dilution (Table IA); type: cell-based; conditions: unit assumed
E. coli UBMS 88-1 (tetB) = assay: MIC, agar dilution; type: cell-based; conditions: E. coli UBMS 88-1 TetB; Table IA; unit assumed
[3] = tested on: S. aureus ATCC 29213 (Sensitive); assay: MIC, agar dilution; type: cell-based; conditions: S. aureus ATCC 29213; Table IA; unit assumed
[4] = tested on: S. haemolyticus AVAH 88-3; assay: MIC, agar dilution; type: cell-based; conditions: S. hemolyticus AVHAH 88-3; Table IA; unit assumed
[5] = tested on: S. aureus UBMS 88-4 (Sensitive); assay: MIC, agar dilution; type: cell-based; conditions: S. aureus UBMS 88-4; Table IA; unit assumed
S. mariescens FDOR 8733 = assay: MIC, agar dilution (Table IA); type: cell-based; conditions: unit assumed
E. coli J2175 = assay: MIC, agar dilution (Table IA); type: cell-based; conditions: unit assumed
E. coli #311 (MP) = assay: MIC, agar dilution (Table IA); type: cell-based; conditions: unit assumed
[6] = tested on: S. aureus UBMS 90-3 (Sensitive); assay: MIC, agar dilution; type: cell-based; conditions: S. aureus UBMS 90-3; Table IA; unit assumed
[7] = tested on: X. maltophilia NEMC 87210; assay: MIC, agar dilution (Table IA); type: cell-based; conditions: unit assumed
E. coli UBMS 90-4 (tetM) = assay: MIC, agar dilution; type: cell-based; conditions: E. coli UBMS 90-4 TetM; Table IA; unit assumed
[8] = tested on: S. aureus UBMS 90-1 (tetM); assay: MIC, agar dilution; type: cell-based; conditions: S. aureus UBMS 90-1 TetM; Table IA; unit assumed
[9] = tested on: S. aureus Smith (Sensitive); assay: MIC, agar dilution; type: cell-based; conditions: S. aureus SMITH (MP); Table IA; unit assumed
[10] = tested on: S. aureus UBMS 90-2 (tetM); assay: MIC, agar dilution; type: cell-based; conditions: S. aureus UBMS 90-2 TetM; Table IA; unit assumed
[11] = tested on: E. coli UBMS 89-2 (Sensitive); assay: MIC, agar dilution; type: cell-based; conditions: E. coli UBMS 89-2 Tet Sens.; Table IA; unit assumed
E. coli UBMS 89-1 (tetM) = assay: MIC, agar dilution; type: cell-based; conditions: E. coli UBMS 89-1 TetM; Table IA; unit assumed
[12] = tested on: Ps. acruginosa ATCC 27853; assay: MIC, agar dilution (Table IA); type: cell-based; conditions: unit assumed
[13] = tested on: S. aureus UBMS 88-7 (tetK); assay: MIC, agar dilution; type: cell-based; conditions: S. aureus UBMS 88-7 TetK; Table IA; unit assumed
E. faecalis ATCC 29212 = assay: MIC, agar dilution; type: cell-based; conditions: E. faecalis ATCC 29212; Table IA; unit assumed
E. coli J3272 TetD = assay: MIC, agar dilution (Table IA); type: cell-based; conditions: unit assumed
S. aureus ROSE (MP) = assay: MIC, agar dilution (Table IA); type: cell-based; conditions: unit assumed
E. faecalis 12201 = assay: MIC, agar dilution; type: cell-based; conditions: Enterococcus 12201; Table IA; unit assumed
S. aureus NEMC 8769/89-4 = assay: MIC, agar dilution (Table IA); type: cell-based; conditions: unit assumed
E. coli J3272 TetC = assay: MIC, agar dilution (Table IA); type: cell-based; conditions: unit assumed
E. coli BAJ9003 = assay: MIC, agar dilution (Table IA); type: cell-based; conditions: unit assumed
[14] = tested on: S. aureus IVES 1983 (meth. resistant); assay: MIC, agar dilution; type: cell-based; conditions: S. aureus IVES 1983; Table IA; unit assumed
[15] = tested on: S. aureus UBMS 88-5 (tetM); assay: MIC, agar dilution; type: cell-based; conditions: S. aureus UBMS 88-5 TetM; Table IA; unit assumed
S. aureus SMITH (sens) [16] = assay: In vivo antibacterial evaluation, acute lethal infection in mice; conditions: Intraveneous
E. coli ATCC 25922 = assay: MIC, agar dilution; type: cell-based; conditions: E. coli ATCC 25922; Table IA; unit assumed
E. coli J3272 Tet sens. = assay: MIC, agar dilution (Table IA); type: cell-based; conditions: unit assumed
[17] = tested on: Wild Type S30 extract, E. coli strain MRE600 (tetracycline sensitive); assay: E. coli in vitro transcription and protein translation, 35S-methionine incorporation (Table VIII)
[18] = tested on: TetM S30 extract, derivative of E. coli MRE600 containing the tetM determinant; assay: as above

| Structure (SMILES) | Antibacterial activity (MIC) (E. coli PRP1 TetA) [µg/mL] | Antibacterial activity (MIC) [1] [µg/mL] | Antibacterial activity (MIC) (E. coli MC4100 TetB) [µg/mL] | ED50 (S. aureus SMITH (sens) [2]) [mg/kg] | Antibacterial activity (MIC) (E. coli UBMS 90-5) [µg/mL] | Antibacterial activity (MIC) (E. coli UBMS 88-1 (tetB)) [µg/mL] | Antibacterial activity (MIC) [3] [µg/mL] | Antibacterial activity (MIC) [4] [µg/mL] | Antibacterial activity (MIC) [5] [µg/mL] | Antibacterial activity (MIC) (S. mariescens FDOR 8733) [µg/mL] | Antibacterial activity (MIC) (E. coli J2175) [µg/mL] | Antibacterial activity (MIC) (E. coli #311 (MP)) [µg/mL] | Antibacterial activity (MIC) [6] [µg/mL] | Antibacterial activity (MIC) [7] [µg/mL] | Antibacterial activity (MIC) (E. coli UBMS 90-4 (tetM)) [µg/mL] | Antibacterial activity (MIC) [8] [µg/mL] | Antibacterial activity (MIC) [9] [µg/mL] | Antibacterial activity (MIC) [10] [µg/mL] | Antibacterial activity (MIC) [11] [µg/mL] | Antibacterial activity (MIC) (E. coli UBMS 89-1 (tetM)) [µg/mL] | also measured |
| --- | --- | --- | --- | --- | --- | --- | --- | --- | --- | --- | --- | --- | --- | --- | --- | --- | --- | --- | --- | --- | --- |
| CC(C)CNCC(=O)Nc1cc(N(C)C)c2c(c1O)C(=O)C1=C(O)C3(O)C(=O)C(C(N)=O)=C(O)C(N(C)C)C3CC1C2.Cl.Cl (stereo not drawn) [TT, [4S-(4alpha,12aalpha)]-4,7-Bis(dimethylamino)-1,4,4a,5,5a,6,11,12a-octahydro-3,10,12,12a-tetrahydroxy-9-[[[(2-methylpropyl)amino]acetyl]amino)-1,11-dioxo-2-naphthacenecarboxamide dihydrochloride] | 2 | 2 | 0.5 | 8 to 16 | 0.5 | 0.5 | 0.25 | 0.5 | 0.25 | 4 | 0.5 | 0.5 | 0.12 | 0.5 | 0.5 | 0.25 | 0.12 | 0.25 | 0.5 | 0.25 | Antibacterial activity (MIC) [12]: 16 µg/mL; Antibacterial activity (MIC) [13]: 2 µg/mL; Antibacterial activity (MIC) (E. faecalis ATCC 29212): 0.25 µg/mL; Antibacterial activity (MIC) (E. coli J3272 TetD): 0.12 µg/mL; Antibacterial activity (MIC) (S. aureus ROSE (MP)): 2 µg/mL; Antibacterial activity (MIC) (E. faecalis 12201): 0.25 µg/mL; Antibacterial activity (MIC) (S. aureus NEMC 8769/89-4): 0.03 µg/mL; Antibacterial activity (MIC) (E. coli J3272 TetC): 0.5 µg/mL; Antibacterial activity (MIC) (E. coli BAJ9003): 0.06 µg/mL; Antibacterial activity (MIC) [14]: 2 µg/mL; Antibacterial activity (MIC) [15]: 0.25 µg/mL; ED50 (S. aureus SMITH (sens) [16]): 1 to 2 mg/kg; Antibacterial activity (MIC) (E. coli ATCC 25922): 0.5 µg/mL; Antibacterial activity (MIC) (E. coli J3272 Tet sens.): 0.5 µg/mL |
| CCCNCC(=O)Nc1cc(N(C)C)c2c(c1O)C(=O)C1=C(O)C3(O)C(=O)C(C(N)=O)=C(O)C(N(C)C)C3CC1C2.Cl.Cl (stereo not drawn) [WW, [4S-(4alpha,12aalpha)]-4,7-bis(dimethylamino)-1,4,4a,5,5a,6,11,12a-octahydro-3,10,12,12a-tetra-hydroxy-1,11-dioxo-9-[[(propylamino)acetyl]amino]-2-naphthacenecarboxamide dihydrochloride] | 1 | 2 | 0.25 | >16 | 0.25 | 0.25 | 0.25 | 0.25 | 0.25 | 2 | 0.25 | 0.25 | 0.12 | 0.5 | 0.25 | 0.12 | 0.12 | 0.25 | 0.25 | 0.25 | % INHIBITION Wild Type S30 ([17]; 0.06 mg/ml): 93%; % INHIBITION Wild Type S30 ([17]; 0.2 mg/ml): 99%; % INHIBITION Wild Type S30 ([17]; 1.0 mg/ml): 99%; % INHIBITION TetM S30 ([18]; 0.06 mg/ml): 88%; % INHIBITION TetM S30 ([18]; 0.2 mg/ml): 97%; % INHIBITION TetM S30 ([18]; 1.0 mg/ml): 98%; Antibacterial activity (MIC) [12]: 8 µg/mL; Antibacterial activity (MIC) [13]: 1 µg/mL; Antibacterial activity (MIC) (E. faecalis ATCC 29212): 0.25 µg/mL; Antibacterial activity (MIC) (E. coli J3272 TetD): 0.12 µg/mL; Antibacterial activity (MIC) (S. aureus ROSE (MP)): 2 µg/mL; Antibacterial activity (MIC) (E. faecalis 12201): 0.12 µg/mL; Antibacterial activity (MIC) (S. aureus NEMC 8769/89-4): 0.06 µg/mL; Antibacterial activity (MIC) (E. coli J3272 TetC): 0.25 µg/mL; Antibacterial activity (MIC) (E. coli BAJ9003): 0.06 µg/mL; Antibacterial activity (MIC) [14]: 2 µg/mL; Antibacterial activity (MIC) [15]: 0.25 µg/mL; ED50 (S. aureus SMITH (sens) [16]): 0.82 mg/kg; Antibacterial activity (MIC) (E. coli ATCC 25922): 0.25 µg/mL; Antibacterial activity (MIC) (E. coli J3272 Tet sens.): 0.25 µg/mL |
| CNC(C)C(=O)Nc1cc(N(C)C)c2c(c1O)C(=O)C1=C(O)[C@]3(O)C(=O)C(C(N)=O)=C(O)[C@@H](N(C)C)C3CC1C2.Cl.Cl (stereo partly drawn) [YY, [4S-(4alpha,12aalpha))-4,7-Bis(dimethylamino)-1,4,4a,5,5a,6,11,12a-octahydro-3,10,12,12a-tetrahydroxy-9-[[2-(methylamino)-1-oxopropyl]amino]-1,11-dioxo-2-naphthacenecarboxamide dihydrochloride] | 2 | 8 | 0.5 | >16 | 0.5 | 0.5 | 0.5 | 0.5 | 0.5 | 8 | 0.5 | 0.5 | 0.12 | 4 | 0.5 | 0.25 | 0.25 | 0.25 | 0.5 | 0.5 | Antibacterial activity (MIC) [12]: 16 µg/mL; Antibacterial activity (MIC) [13]: 4 µg/mL; Antibacterial activity (MIC) (E. faecalis ATCC 29212): 0.12 µg/mL; Antibacterial activity (MIC) (E. coli J3272 TetD): 0.25 µg/mL; Antibacterial activity (MIC) (S. aureus ROSE (MP)): 8 µg/mL; Antibacterial activity (MIC) (E. faecalis 12201): 0.25 µg/mL; Antibacterial activity (MIC) (S. aureus NEMC 8769/89-4): 0.12 µg/mL; Antibacterial activity (MIC) (E. coli J3272 TetC): 1 µg/mL; Antibacterial activity (MIC) (E. coli BAJ9003): 0.06 µg/mL; Antibacterial activity (MIC) [14]: 4 µg/mL; Antibacterial activity (MIC) [15]: 0.5 µg/mL; ED50 (S. aureus SMITH (sens) [16]): 0.5 to 1 mg/kg; Antibacterial activity (MIC) (E. coli ATCC 25922): 0.5 µg/mL; Antibacterial activity (MIC) (E. coli J3272 Tet sens.): 0.5 µg/mL |
